Measured values reported in patent US8716237B2, “Methods for the treatment or prevention of hemorrhagic conditions” (University of Rochester, priority 2007, dated 2014).

Tests used:
Cyld−/− mice = test: Survival of Cyld−/− mice inoculated with S. pneumoniae after pretreatment; type: in vivo, mouse; conditions: SB203580 10 mg/kg intraperitoneally 2 hours before S. pneumoniae inoculation
Protocol: For S. pneumoniae-induced lethal infections in wild type, Cyld^−/−, Mkk3^−/−, and PAI-1^−/− mice, anaesthetized mice were intratracheally inoculated with live S. pneumoniae, S. pneumoniae wild type or pneumolysin mutant lysate, or pneumolysin (“PLY”), at a concentration of 5×10^7CFU per mouse for live bacteria and bacterial lysate and 200 ng/mouse for PLY in all experiments unless otherwise indicated, and saline was inoculated as control. The mice were monitored for lethality every 2 hours for the first 12 hours and every 12 hours for 5 days thereafter. To assess the effect of perturbing p38 MAPK signaling on S. pneumoniae-induced lethality in Cyld^−/− mice, Cyld^−/− mice were pretreated with the p38 inhibitor SB203580 (10 mg/kg, intraperitoneally in Cyld^−/− mice) 2 hours before S. pneumoniae inoculation, and mice were then intratracheally inoculated with S. pneumoniae. To determine the effect of administration of exogenous PAI-1 on S. pneumoniae-induced lethality, mice were intratracheally administered with mouse rPAI-1 (12.5 μg/mouse) or saline as control, followed by S. pneumoniae and PLY inoculation 1 day after PAI-1 administration. For PAI-1 neutralization in Cyld^−/− mice, Cyld^−/− mice were intraperitoneally injected with α-PAI-1 mAb (25 μg/mouse for histological analysis and 50 μg/mouse for lethality) 2 hours before S. pneumoniae inoculation. Mouse IgG was used as control. […] Lung tissues were then subjected to histological analysis and total mRNA and protein extraction. In all Examples, saline was used as a control unless otherwise specified.
To assess the effect of perturbing NF-κB signaling on S.p.-induced lethality in Cyld^−/− mice, Cyld^−/− mice were pretreated with the IKK inhibitor Wedelolactone (10 mg/kg, intraperitoneally) 2 hours before S.p. inoculation, and mice were then intratracheally inoculated with S.p.
Differences in survival between wild-type, Cyld-deficient (“Cyld^−/−”), Mkk3-deficient (“Mkk3^−/−”), and PAI/−/−deficient (“PAI-1^−/−”) mice after saline, S. pneumoniae, S. pneumoniae lysate, and/or pneumolysin inoculation with or without SB203580, rPAI-1, or α-PAI-1 mAb were determined by Kaplan-Meier analysis. All tests were performed using SPSS14.0 software (SPSS Inc.). All in vivo survival rate data were evaluated by Log Lank test. All other in vivo and in vitro data were evaluated by Student t-test. Statistical significance was accepted at a value of p<0.05.

PAI-1 = PAI-1 mRNA expression in A549 cells (Q-PCR); type: cell-based, human; conditions: SB203580 pretreatment (1 μM, 2 hours)
Protocol: Cells were cultured on 12-well plates and transfected with various expression plasmids, as described in Examples 1-15 and the Brief Description of the Drawings. All transient transfections were carried out in triplicate using TransIT-LT1 reagent (Minis) following the manufacturer's instructions. […] Transfected cells were pretreated with or without chemical inhibitors including SB203580 (1 μM) for 2 hours. S.p. or pneumolysin was then added to the transfected cells 42 hours after transfection. After 5 hours, the cells were harvested for either RNA extraction and real-time quantitative PCR analysis as described in the Examples or luciferase assay. […]
Total RNA was isolated with TRIzol reagent (Invitrogen) by following the manufacturer's instructions. Real-Time Quantitative RT-PCR analysis of PAI-1 and CYLD were performed as described in Jono et al., “NF-κB Is Essential for Induction of CYLD, the Negative Regulator of NF-κB: Evidence for a Novel Inducible Autoregulatory Feedback Pathway,” J. Biol. Chem. 279:36171-4 (2004), which is hereby incorporated by reference in its entirety. […] Relative quantity of PAI-1 mRNA was obtained using comparative CT Method and was normalized by Cyclophilin and GAPDH as an endogenous control for human and mouse, respectively (Applied Biosystems).

C[S+]([O-])c1ccc(-c2nc(-c3ccncc3)c(-c3ccc(F)cc3)[nH]2)cc1 (stereo not shown) [SB203580]
inoculated mice died within 48 hours (Cyld−/− mice): approximately 80% | survival (Cyld−/− mice): 20% | time after inoculation at which mice started to die (Cyld−/− mice): 12 h | S. pneumoniae-induced PAI-1 expression (PAI-1): greatly reduced S. pneumoniae-induced PAI-1 expression
